According to PubChem BioAssay (NCI):
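Method: 48-hour compound exposure of cells in 96-well plates, five concentrations, linear interpolation of endpoints. TGI: concentration producing complete growth inhibition.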

What was measured:
Test in all cases: inhibition of tumour cell growth, NCI panel, 48 h
[1] = system: MDA-MB-435
[2] = system: HCT-15 colon
[3] = system: ACHN renal
[4] = system: EKVX NSCLC
[5] = system: CCRF-CEM leukemia
[6] = system: IGROV1 ovarian
[7] = system: BT-549 breast
[8] = system: DU-145 prostate
[9] = system: 786-0 renal
[10] = system: SW-620 colon
[11] = system: NCI-H226 lung
[12] = system: HOP-92 NSCLC
[13] = system: U251 CNS

Compound	TGI [1] [µM]	TGI [2] [µM]	TGI [3] [µM]	TGI [4] [µM]	TGI [5] [µM]	TGI [6] [µM]	TGI [7] [µM]	TGI [8] [µM]	TGI [9] [µM]	TGI [10] [µM]	TGI [11] [µM]	TGI [12] [µM]	TGI [13] [µM]
O=C(NC1CCCCC1)N1CCNC1=S	> 100	> 100	> 100	> 100	> 100	> 100	> 100	> 100	> 100	> 100	> 100	> 100	–
Clc1ccc(CCNCCNC2(c3cc4ccccc4s3)CCCCC2)cc1Cl	3.83	3.61	3.1	3.99	5.39	3.24	3.44	3.88	3.65	3.48	3.64	3.15	2.99
CC(C)(C)c1ccc(OCCOc2ccc(C(C)(C)C)cc2NC=O)c(NC=O)c1	26.9	26.4	> 73.2	98	> 45.3	> 100	32.8	> 87.9	37.8	> 58.3	28.1	23.5	34.7
C=C1C(O)C2OC(=O)C(=C)C2C(OC(=O)/C(C)=C/C)CC2(C)OC2C2OC12 (configuration not stated)	> 100	14.5	15.5	33	> 100	> 100	27.2	> 100	42.5	> 100	> 100	65.4	> 100
Cc1nc(-n2nc(-c3ccccc3)cc2-c2ccccc2)sc1C(/C=C\c1ccc([N+](=O)[O-])cc1)=N/NC(=S)NN	> 100	56.6	> 82	> 100	> 100	> 72	49.2	98.9	46	> 100	> 86.6	> 100	> 100
CN1CN(c2ccccc2)C2(CCN(C(=O)OC(C)(C)C)CC2)C1=O	> 100	> 100	> 100	> 100	> 100	> 100	> 100	> 100	> 100	> 100	> 100	> 100	> 100
COc1c(C(=O)CC2c3c(cc4oc(C)cc(=O)c4c3OC)OC(=N)C2c2nc3ccccc3[nH]2)c(O)c(OC)c2occc12 (configuration not stated)	> 100	> 100	> 100	> 100	> 100	> 100	> 100	> 100	> 100	> 100	> 100	> 100	> 100
COc1cc(/C=[N+](\[O-])c2ccccc2Cl)ccc1OC(=S)S	57.7	> 100	> 100	> 100	–	> 100	68.3	> 100	> 100	> 100	> 100	49.2	> 100
CN1C(=O)c2c(c3c4ccccc4n(C)c3c3c2c2ccccc2n3C)C1=O	> 100	> 100	> 100	> 100	> 100	> 100	> 100	> 100	> 100	> 100	> 100	> 100	> 100
C[C@]12CC[C@@H]3c4cc(C=O)c(OCc5ccccc5)cc4CC[C@H]3[C@@H]1CCC2OCc1ccccc1 (some centres not stated)	> 100	> 100	> 100	> 100	> 100	–	> 100	> 100	> 100	> 100	> 100	> 100	> 100
CCN1CCC(O)(/C=C/c2ccc(Cl)c(Cl)c2)C(C(=O)/C=C/c2ccc(Cl)c(Cl)c2)C1 (configuration not stated)	2.22	4.52	2.43	1.89	1.13	1.71	2.01	3.24	2.7	1.4	3.81	1.58	3.79
CCCCCCCCC/C=C1/CC(CO)(COC(=O)C2CCCCC2)OC1=O (configuration not stated)	> 100	> 100	> 100	> 100	> 100	> 100	> 100	> 100	> 100	> 100	> 100	> 100	> 100
COc1ccc(/C=C2\CCC(C)(CN(C)C)C2=O)cc1Br (configuration not stated)	44	32.2	> 62.6	49.3	> 80.5	40.2	45.4	> 100	34.9	38.4	56.1	> 85.8	45.1
O=S1(=O)OCCOS(=O)(=O)C1C1c2ccccc2-c2ccccc21	> 100	> 100	> 100	> 100	89.4	> 100	> 100	> 100	> 100	> 100	> 100	> 100	57.9
CC(NC(=O)C(NC(=O)C(NC(=O)C(F)(F)F)C(C)C)C(C)C)C(=O)Oc1c(Cl)c(Cl)c(Cl)c(Cl)c1Cl (configuration not stated)	> 100	> 100	> 100	> 100	> 100	> 100	> 100	> 100	–	> 100	> 100	> 100	> 100
CCCC(CCC(=O)O)(CCC(=O)O)[N+](=O)[O-]	> 100	> 100	> 100	> 100	–	> 100	> 100	> 100	> 100	> 100	> 100	> 100	> 100
Clc1cccc(C=NC23CC4CC(CC(C4)C2)C3)c1Cl	> 10	> 10	> 10	> 10	> 10	> 10	> 10	> 10	> 10	> 10	> 10	> 10	> 10

Compound	TGI [1] [µM]	TGI [2] [µM]	TGI [3] [µM]	TGI [4] [µM]	TGI [5] [µM]	TGI [6] [µM]	TGI [7] [µM]	TGI [8] [µM]	TGI [9] [µM]	TGI [10] [µM]	TGI [11] [µM]	TGI [12] [µM]	TGI [13] [µM]
CC(=O)[C@H]1CC[C@@H]2[C@]1(C)CC=C1[C@]23C=C[C@]2(C[C@@H](O)CC[C@]12C)C(C(=O)O)C3C(=O)O (some centres not stated)	> 100	> 100	> 100	> 100	> 100	> 100	> 100	> 100	> 100	> 100	> 100	> 100	> 100
COC(=O)[C@@]1(Cc2ccc(OC(C)=O)cc2)Cc2cc3ccccc3n2N1	> 100	> 100	> 100	> 100	> 100	> 100	> 100	> 100	> 100	> 100	> 100	> 100	> 100
O=C(O)Cn1cnc2c(=O)[nH]c(Nc3ccccc3)nc21	> 100	> 100	> 100	> 100	> 100	> 100	> 100	> 100	> 100	> 100	> 100	> 100	> 100
CCOP(=O)(OCC)C(Cc1cn(S(=O)(=O)c2ccc(C)cc2)cn1)C(=O)O (configuration not stated)	> 100	> 100	> 100	> 100	> 100	> 100	> 100	> 100	> 100	> 100	> 100	> 100	> 100
C=c1c2ccccc2oc2nc3[nH]c(N)c(C#N)c(N)c3c(=N)c12	> 100	> 100	> 100	73	> 100	42.5	> 100	> 100	> 100	> 100	74.9	> 100	> 100
Cc1ccc2c(=O)cc(-c3ccccc3)[nH]c2n1	0.0321	6.3	> 100	> 100	–	> 100	> 100	> 23.7	> 86	> 100	9.69	> 55.2	> 26.3
COc1ccc2cc(CNCCOCCOCCNCc3ccc4cc(OC)ccc4c3)ccc2c1	1.21	1.63	3.01	3.21	1.24	3.45	3.59	3.15	2.19	3.69	3.09	3.05	8.46
CC(=O)OC1CC[C@@]2(C)C(=CC[C@@H]3[C@@H]2CC[C@]2(C)Nc4c(cnn4-c4ccc(F)cc4)C[C@@H]32)C1 (some centres not stated)	> 100	> 100	> 100	> 100	> 100	> 100	> 100	> 100	> 59.2	> 100	> 100	> 100	47.3
c1ccc(C(OCCN2CC3CCC(C2)N3)c2ccccc2)cc1	> 100	> 100	> 100	> 100	> 100	> 100	> 100	> 100	> 100	> 100	> 100	75.6	> 100
COc1cc2c(cc1OC)C/C(=N\O)c1cc(OC)c(OC)cc1/C=C\2	4.05	> 100	> 100	> 100	> 100	72.8	97.1	> 64	> 100	> 90.6	45.5	> 100	> 41.1
CN(C)CC(O)CNC(=O)Nc1ccccc1 (configuration not stated)	> 100	> 100	> 100	> 100	> 100	> 100	> 100	> 100	> 100	> 100	> 100	> 100	> 100
COc1cc([C@@H]2c3cc4c(cc3[C@H](OC3OC5COC(C(C)C)OC5C(O)C3O)C3COC(=O)[C@@H]32)OCO4)cc(OC)c1OC (some centres not stated)	> 54.2	94.1	21.2	> 100	> 29.6	12.5	20.2	55.5	12.5	> 100	12.6	24.6	> 21.2
CC(=O)O[C@H]1C(=O)[C@@]2(C)C(C(OC(=O)c3ccccc3)[C@]3(O)CC(OC(=O)C(O)C(NC(=O)c4cccc(Cl)c4)c4ccccc4)C(C)=C1C3(C)C)[C@]1(OC(C)=O)CO[C@@H]1C[C@@H]2O (some centres not stated)	0.417	> 10	> 10	> 10	5.91	> 10	> 10	5.58	> 10	> 10	> 10	> 10	8.9
OC[C@@H](O)[C@H](O)[C@H](O)[C@@H](O)C1SCCCS1	> 100	> 100	> 100	> 100	–	> 100	> 100	> 100	> 100	> 100	> 100	92.5	> 100
Nc1nc(Cl)cc(Oc2ccc(Cl)cc2)n1	> 100	> 100	> 100	> 100	> 100	> 100	> 100	> 100	> 100	> 100	> 100	> 100	> 100
COC(=O)C1=C(C(=O)OC)SC2(S1)C(C(=O)OC)=C(C(=O)OC)Sc1c2ssc1=O	4.36	1.57	2.22	6.16	0.307	3.63	2.89	2.33	1.21	2.47	2.97	2.3	4.68
